From patent publication US6680025B2, “Device and method for photoactivation” (Cerus Corporation, priority 1989, dated 2004)

Legend:
E. coli polymerase I = conditions: nick-translating a double-stranded template; cited from earlier work
HIV 115-mer [1] = experiment: Effect of unirradiated isopsoralen on PCR; type: biochemical; conditions: for Counts (CPM) of PCR product: 30 cycles, 0 μg/ml gave 42200
Procedure: To systematically evaluate the effect of the presence of increasing concentrations of isopsoralen on PCR, AMDMIP (0, 100, 200, 400 μg/ml) was added to 107 copies of HIV 115-mer as template. PCR was then carried out for 30 cycles in the presence of α-^32P-dCTP. The PCR product was run on denaturing polyacrylamide gel and autoradiographed. The bands were thereafter cut and counted.

HIV 115-mer [2] = experiment: Post-amplification sterilization, isopsoralen present during amplification (Example 55); type: biochemical; conditions: AMDMIP 400 μg/ml, 30 cycles
Excerpt: For the purposes of this determination, the steps of the following experiment include (see FIG. 42): a) preparing template, b) providing template, c) providing isopsoralen, d) providing PCR reagents, e) providing polymerase, f) mixing isopsoralen, PCR reagents, template, and polymerase to initiate PCR, g) cycling to provide PCR product, h) irradiating, i) carrying over of PCR product into new tubes at specific copy numbers, and j) amplifying in a subsequent PCR.
Step a): Template Preparation. HIV 115-mer was used as template.
Step b) Providing Template. For the reaction, template (equivalent to approximately 107 copies) in buffer was provided for the reaction vessel. Step c) Providing Isopsoralen. AMDMIP (400 μg/ml) was provided as the isopsoralen. This is a higher concentration of AMDMIP than used in the previous example.
Step d), e), f) and g). PCR reagents and polymerase were provided, mixed and cycled as described above. This time, however, isopsoralen is part of the pre-amplification mixture.
Step h) Irradiation. Irradiation was performed on the CE-III device for 15 minutes at 25° C.
Step i) Carrying over of PCR product. Aliquots of PCR product were added into six new reaction tubes—two tubes for each dilution. Dilutions to yield 10^7, 10^5 and 10^3 copies were made. […]

calf thymus DNA = experiment: Binding of photoproduct to nucleic acid (dark reaction after pre-irradiation)
Procedure: The nucleic acid binding properties of photoproduct were investigated with calf thymus DNA. 200 μg/ml of ^3H-AMDMIP (1×10^5 CPM/ml) in Taq buffer was irradiated at room temperature with either the CE-III device or the PTI device. This irradiation was performed for 15 minutes in the absence of nucleic acid. Following the irradiations, 200 μl of the irradiated solution was mixed with 200 μl of 1000 μg/ml DNA solution in Taq buffer. Several identical samples were prepared in this manner. One set of samples was allowed to react with the DNA for 2 hours at room temperature. The other set of samples was subjected to 30 cycles of heating and cooling by placing the samples in a thermal cycler [Perkin-Elmer Cetus DNA Thermal Cycler (Part No. N8010150); each cycle involved 93° C. for 30 seconds, 55° C. for 30 seconds and 72° C. for 1 minute]. When the DNA reactions were complete, all samples were analyzed for DNA-associated tritium counts (CPM) by following the flow chart outlined in FIG. 17.
The DNA-associated counts are given in terms of adducts per 100 base pairs in Table 10. For calculation purposes, these adducts are reported as if they represented monomers of AMDMIP. Regardless of the accuracy of this approximation, the process of irradiating ^3H-AMDMIP clearly results in a tritiated product which associates (i.e. binds) with DNA in the absence of subsequent activating wavelengths of electromagnetic radiation. The extent of the association is shown in Table 10 to depend upon the reaction conditions.

[3] = system: Molt-4 human genomic DNA (human beta globin gene); experiment: Sterilization of genomic target before PCR (beta globin 174 bp); type: biochemical
Procedure: Four samples containing 1 μg of Molt-4 human genomic DNA target were prepared for PCR with primers KM 29 (5′-[…]) and HRI-12 (5′-[…]). These primers give a 174 bp product within the human beta globin gene. All four samples contained AMDMIP at 100 μg/ml, and were irradiated for 0, 5, 10 or 15 minutes prior to PCR amplification. […] Amplification were carried out in 1×Taq buffer (50 mM KCl, 10 mM Tris pH 8.5, 2.5 mM MgCl2, 200 μg/ml gelatin), 175 μM each dNTP, 20 μM primer with 2.5 units of Taq polymerase and 100 μg/ml AMDMIP present during amplification. PCR was carried out for 30 cycles; one cycle=30 sec at 94° C. (denaturing), 30 sec at 55° C. (primer annealing), and 60 sec at 72° C. (extension). α-[…] was used as an internal label. After amplification, the samples were analyzed for product by PAGE followed by autoradiography.

Structure (SMILES)	inhibition of polymerase by covalently bound monoadducts (E. coli polymerase I)	concentration compatible with the PCR system (HIV 115-mer [1]; HIV 115-mer system)	Counts (CPM) of PCR product (HIV 115-mer [1]; unirradiated AMDMIP 100 μg/ml)	Counts (CPM) of PCR product (HIV 115-mer [1]; unirradiated AMDMIP 200 μg/ml)	Counts (CPM) of PCR product (HIV 115-mer [1]; unirradiated AMDMIP 400 μg/ml)	post-amplification sterilization (HIV 115-mer [2]; CE-III 15 minutes at 25° C., 10^7, 10^5, 10^3 copies carried over)	reamplification of carryover with AMDMIP, not light-treated (HIV 115-mer [2])	ADDUCTS PER 1000 BASE PAIRS (calf thymus DNA; device CE-II, pre-irradiated 15 mins. without nucleic acid, dark reaction room temp.)	ADDUCTS PER 1000 BASE PAIRS (calf thymus DNA; device CE-III, pre-irradiated 15 mins. without nucleic acid, dark reaction thermally cycled)	ADDUCTS PER 1000 BASE PAIRS (calf thymus DNA; device PTI, pre-irradiated 15 mins. without nucleic acid, dark reaction thermally cycled)	ADDUCTS PER 1000 BASE PAIRS (calf thymus DNA; no irradiation, dark reaction room temp. 2 hours)	ADDUCTS PER 1000 BASE PAIRS (calf thymus DNA; no irradiation, dark reaction thermally cycled 30 cycles)	impact of unirradiated AMDMIP on amplification ([3]; 100 μg/ml (data not shown))	amplification of genomic target irradiated in presence of AMDMIP ([3]; AMDMIP 100 μg/ml, irradiated 0, 5, 10 or 15 minutes before PCR, 30 cycles)
Cc1cc2occc2c2oc(=O)ccc12 [MIP, 5-Methylisopsoralen]	not inhibited	–	–	–	–	–	–	–	–	–	–	–	–	–
Cc1oc2ccc3c(C)cc(=O)oc3c2c1CN [AMDMIP, 4′-Aminomethyl-4,5′-dimethylisopsoralen]	–	up to 400 μg/ml	77200 CPM	77500 CPM	69400 CPM	complete, post-amplification sterilization	show amplification	4.4	24.3	5.7	1.1	0.9	no significant impact on amplification	no amplification of the sterilized genomic target
